Reference: ChEMBL document CHEMBL6153056 (Eur J Med Chem, 2025)
Blank lines part the entries; values can stand above or below the molecule they belong to. Calls of active or inactive are those of the source. The calls are words filed in the database; no cut-off is given here.

Legend:
[1] = Toxicity in BALB/c mouse assessed as change in creatinine level in blood at 5 mg/kg, ip measured every 12 hrs for 16 days by biochemical automatic analyzer; type: organism-based; conditions: in vivo, 384 h, time 16 day
[2] = Stability of the compound in stimulated gastric fluid pH 1.2 at 5 uM incubated for 30 mins by HPLC-MS analysis; type: physicochemical; conditions: simulated gastric fluid, read-out: Stability
DU-145 [3] = assay: Antiproliferative activity against human DU-145 cells incubated for 72 hrs by MTT assay; type: functional, cell-based; conditions: DU-145, 72 h
CDK9/cyclin T1 = CDK9/cyclin T1 (Homo sapiens, UniProt P50750); assay: Inhibition of CDK9/cyclin T1 (unknown origin) pre-incubated for 20 min followed by 32P-ATP addition and measured after 2 hrs; type: protein-complex assay
[4] = Half life in BALB/c mouse at 10 mg/kg, ip measured upto 24 hrs by LC-MS/MS analysis; type: ADME, organism-based; conditions: in vivo
LNCaP = assay: Antiproliferative activity against human LNCaP cells incubated for 72 hrs by MTT assay; type: functional, cell-based
DU-145 [5] = assay: Upregulation of CDK9 expression in human DU-145 cells by Western blot analysis; type: functional, cell-based
[6] = Toxicity in BALB/c mouse xenografted with human DU-145 cells assessed as effect on body weight at 5 mg/kg, ip measured every 12 hrs for 16 days; type: organism-based; conditions: in vivo, 384 h, time 16 day
[7] = Microsomal stability in human liver microsomes assessed as residual activity at 5 uM incubated for 15 min in presence of NADPH generating system by HPLC-MS analysis; type: ADME, Microsome; conditions: read-out: Stability
[8] = Toxicity in BALB/c mouse assessed as change in blood urea nitrogen level in blood at 5 mg/kg, ip measured every 12 hrs for 16 days by biochemical automatic analyzer; type: organism-based; conditions: in vivo, 384 h, time 16 day
DU-145 [9] = assay: Antitumor activity against human DU-145 cells xenografted in BALB/c mouse model assessed as reduction in tumor volume at 10 mg/kg, ip measured every 12 hrs for 16 days; type: functional, organism-based; conditions: time 16.0 day
VCaP = assay: Antiproliferative activity against human VCaP cells incubated for 72 hrs by MTT assay; type: functional, cell-based
[10] = Toxicity in BALB/c mouse assessed as change in alanine transferase (ALT) level in blood at 5 mg/kg, ip measured every 12 hrs for 16 days by biochemical automatic analyzer; type: organism-based; conditions: in vivo, 384 h, time 16 day
PC-3 = assay: Antiproliferative activity against human PC-3 cells incubated for 72 hrs by MTT assay; type: functional, cell-based; conditions: PC-3, 72 h
[11] = Toxicity in BALB/c mouse assessed as change in alanine transferase (ALT) level in blood at 10 mg/kg, ip measured every 12 hrs for 16 days by biochemical automatic analyzer; type: organism-based; conditions: in vivo, 384 h, time 16 day
[12] = Toxicity in BALB/c mouse xenografted with human DU-145 cells assessed as effect on body weight at 10 mg/kg, ip measured every 12 hrs for 16 days; type: organism-based; conditions: in vivo, 384 h, time 16 day
[13] = Stability in mouse serum at 5 uM measured after 360 mins by HPLC analysis; type: ADME, cell-free; conditions: read-out: Stability
[14] = Drug uptake in human DU-145 cells assessed as increase in green fluorescence in nucleus at 1 uM incubated for 2 hrs by live-cell confocal laser scanning microscopy based analysis; type: ADME; conditions: du-145, 2 h
[15] = Apparent permeability of compound across apical to basolateral side in human Caco-2 cells at 10 uM incubated for 2 hrs; type: ADME, cell-based
[16] = Toxicity in BALB/c mouse assessed as change in creatinine level in blood at 10 mg/kg, ip measured every 12 hrs for 16 days by biochemical automatic analyzer; type: organism-based; conditions: in vivo, 384 h, time 16 day
[17] = Cmax in BALB/c mouse at 10 mg/kg, ip measured upto 24 hrs by LC-MS/MS analysis; type: ADME, organism-based; conditions: in vivo
DU-145 [18] = assay: Antitumor activity against human DU-145 cells xenografted in BALB/c mouse model assessed as reduction in tumor volume at 5 mg/kg, ip measured every 12 hrs for 16 days; type: functional, organism-based; conditions: time 16.0 day
T47D = assay: Antiproliferative activity against human T47D cells incubated for 72 hrs by MTT assay; type: functional, cell-based
[19] = Drug uptake in human DU-145 cells assessed as increase in green fluorescence in cytoplasm at 1 uM incubated for 2 hrs by live-cell confocal laser scanning microscopy based analysis; type: ADME; conditions: du-145, 2 h
CWR22R = assay: Antiproliferative activity against human 22Rv1 cells incubated for 72 hrs by MTT assay; type: functional, cell-based; conditions: 22Rv1, 72 h
[20] = Toxicity in BALB/c mouse assessed as change in blood urea nitrogen level in blood at 10 mg/kg, ip measured every 12 hrs for 16 days by biochemical automatic analyzer; type: organism-based; conditions: in vivo, 384 h, time 16 day
[21] = Toxicity in BALB/c mouse assessed as change in aspartate transaminase (AST) level in blood at 10 mg/kg, ip measure every 12 hrs for 16 days by biochemical automatic analyzer; type: organism-based; conditions: in vivo, 384 h, time 16 day
MCF7 = assay: Antiproliferative activity against human MCF7 cells incubated for 72 hrs by MTT assay; type: functional, cell-based; conditions: MCF7, 72 h
[22] = Tmax in BALB/c mouse at 10 mg/kg, ip measured upto 24 hrs by LC-MS/MS analysis; type: ADME, organism-based; conditions: in vivo
[23] = Half life in BALB/c mouse at 10 mg/kg, po measured upto 24 hrs by LC-MS/MS analysis; type: ADME, organism-based; conditions: in vivo
[24] = Cmax in BALB/c mouse at 10 mg/kg, po measured upto 24 hrs by LC-MS/MS analysis; type: ADME, organism-based; conditions: in vivo
[25] = Tmax in BALB/c mouse at 10 mg/kg, po measured upto 24 hrs by LC-MS/MS analysis; type: ADME, organism-based; conditions: in vivo
[26] = Half life in BALB/c mouse at 2 mg/kg, iv measured upto 24 hrs by LC-MS/MS analysis; type: ADME, organism-based; conditions: in vivo
[27] = Toxicity in BALB/c mouse assessed as change in aspartate transaminase (AST) level in blood at 5 mg/kg, ip measure every 12 hrs for 16 days by biochemical automatic analyzer; type: organism-based; conditions: in vivo, 384 h, time 16 day

Sequence of CDK9/cyclin T1 (O60563 whole entry): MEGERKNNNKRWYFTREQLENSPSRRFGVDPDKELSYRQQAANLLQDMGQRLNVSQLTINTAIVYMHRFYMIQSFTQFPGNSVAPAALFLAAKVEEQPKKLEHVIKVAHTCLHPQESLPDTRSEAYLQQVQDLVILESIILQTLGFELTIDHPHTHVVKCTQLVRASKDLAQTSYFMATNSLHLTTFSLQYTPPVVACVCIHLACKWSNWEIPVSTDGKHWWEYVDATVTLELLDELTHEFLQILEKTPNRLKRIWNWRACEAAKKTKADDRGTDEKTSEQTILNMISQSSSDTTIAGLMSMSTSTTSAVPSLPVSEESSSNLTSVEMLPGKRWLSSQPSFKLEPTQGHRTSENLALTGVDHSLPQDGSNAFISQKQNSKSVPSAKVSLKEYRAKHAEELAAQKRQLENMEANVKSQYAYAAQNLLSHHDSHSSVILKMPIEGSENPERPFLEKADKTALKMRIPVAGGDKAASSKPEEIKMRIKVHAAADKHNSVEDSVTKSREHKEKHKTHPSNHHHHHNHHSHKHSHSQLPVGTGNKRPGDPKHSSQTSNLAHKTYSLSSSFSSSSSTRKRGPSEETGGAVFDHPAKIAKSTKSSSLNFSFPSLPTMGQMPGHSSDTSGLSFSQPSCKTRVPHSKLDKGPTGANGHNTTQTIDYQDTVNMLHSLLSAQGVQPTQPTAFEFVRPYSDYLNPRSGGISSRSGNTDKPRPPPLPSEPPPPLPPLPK
Sequence of CDK9/cyclin T1 (P50750 whole entry): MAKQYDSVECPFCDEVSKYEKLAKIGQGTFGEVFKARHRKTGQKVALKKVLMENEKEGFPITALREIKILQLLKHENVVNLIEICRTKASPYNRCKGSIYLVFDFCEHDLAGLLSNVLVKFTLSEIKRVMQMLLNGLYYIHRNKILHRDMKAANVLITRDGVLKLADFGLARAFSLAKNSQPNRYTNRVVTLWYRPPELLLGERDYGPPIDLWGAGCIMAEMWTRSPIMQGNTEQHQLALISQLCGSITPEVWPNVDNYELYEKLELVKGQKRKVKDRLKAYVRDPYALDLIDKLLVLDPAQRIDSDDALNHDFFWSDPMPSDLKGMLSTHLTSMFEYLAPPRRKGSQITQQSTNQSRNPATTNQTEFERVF

SMILES: CC(=O)N[C@H](CC(C)C)C(=O)N[C@@H](C)C(=O)N[C@@H](CC(C)C)C(=O)N[C@@H](CCC(N)=O)C(=O)N[C@H](C(=O)N[C@H](CC(C)C)C(=O)NCC(=O)N[C@@H](Cc1ccccc1)C(=O)N[C@H](CCC(N)=O)C(=O)N[C@@H](CC(C)C)C(=O)N[C@H](C(N)=O)[C@@H](C)O)[C@@H](C)O
- remaining at 0.5 h, 5 µM [2]: 94.2%
- IC50 (DU-145 [3]): 820 nM
- IC50 (CDK9/cyclin T1): 10.5 nM
- Activity (DU-145 [5]): Active
- remaining at 0.25 h, 5 µM [7]: 95.6%
- Papp A→B at 2 h, 10 µM [15]: 26.8 ×10⁻⁶ cm/s

SMILES: CC(=O)N[C@H](CC(N)=O)C(=O)N[C@@H](C)C(=O)N[C@H](C(=O)N[C@@H](CCC(N)=O)C(=O)N[C@H](C(=O)N[C@H](CC(C)C)C(=O)NCC(=O)N[C@@H](Cc1ccccc1)C(=O)N[C@H](CCC(N)=O)C(=O)N[C@@H](CC(C)C)C(=O)N[C@H](C(N)=O)[C@@H](C)O)[C@@H](C)O)C(C)C
- IC50 (DU-145 [3]): 2520 nM
- IC50 (CDK9/cyclin T1): 23.9 nM

SMILES: CC(=O)N[C@H](C)C(=O)N[C@@H](C)C(=O)N[C@@H](CC(C)C)C(=O)N[C@@H](C)C(=O)N[C@H](C(=O)N[C@H](CC(C)C)C(=O)NCC(=O)N[C@@H](Cc1ccccc1)C(=O)N[C@H](C)C(=O)N[C@@H](CC(C)C)C(=O)N[C@@H](C)C(N)=O)[C@@H](C)O
- IC50 (DU-145 [3]): > 50000 nM
- IC50 (CDK9/cyclin T1): > 50 nM

SMILES: CC(=O)N[C@H](CC(N)=O)C(=O)N[C@H](CCC(N)=O)C(=O)N[C@@H](CC(C)C)C(=O)NCC(=O)N[C@@H](Cc1ccccc1)C(=O)N[C@H](CC(C)C)C(=O)N[C@@H](CC(C)C)C(=O)N[C@@H](C)C(=O)N[C@H](C(=O)N[C@@H](CCC(N)=O)C(=O)N[C@H](C(N)=O)[C@@H](C)O)[C@@H](C)O
- IC50 (DU-145 [3]): > 50000 nM
- IC50 (CDK9/cyclin T1): > 50 nM

SMILES: CC(=O)N[C@@H](CC(N)=O)C(=O)N[C@@H](C)C(=O)N[C@@H](CC(C)C)C(=O)N[C@@H](CCC(N)=O)C(=O)N[C@H](C(=O)N[C@H](CC(C)C)C(=O)NCC(=O)N[C@@H](Cc1ccccc1)C(=O)N[C@H](CCC(N)=O)C(=O)N[C@@H](CC(C)C)C(=O)N[C@H](C(N)=O)[C@@H](C)O)[C@@H](C)O
- IC50 (DU-145 [3]): 9030 nM
- IC50 (CDK9/cyclin T1): 87.4 nM

More lines, in order of falling IC50 (DU-145 [3]), values ahead:

- IC50 (DU-145 [3]): 33100 nM
SMILES: Nc1n[nH]c(N)c1/N=N/c1ccc(O)cc1

- IC50 (DU-145 [3]): 4050 nM
- IC50 (CDK9/cyclin T1): 36.8 nM
SMILES: CC(=O)N[C@H](CC(N)=O)C(=O)N[C@@H](C)C(=O)N[C@@H](CC(C)C)C(=O)N[C@@H](CCC(N)=O)C(=O)N[C@H](C(=O)N[C@H](CC(C)C)C(=O)NCC(=O)N[C@@H](Cc1ccccc1)C(=O)N[C@H](C)C(=O)N[C@@H](CC(C)C)C(=O)N[C@H](C(N)=O)[C@@H](C)O)[C@@H](C)O

- IC50 (DU-145 [3]): 1670 nM
- IC50 (CDK9/cyclin T1): 17.5 nM
SMILES: CC(=O)N[C@H](CC(C)C)C(=O)N[C@@H](C)C(=O)N[C@@H](CC(C)C)C(=O)N[C@@H](CCC(N)=O)C(=O)N[C@H](C(=O)N[C@H](CC(C)C)C(=O)NCC(=O)N[C@@H](Cc1ccccc1)C(=O)N[C@H](CCC(N)=O)C(=O)N[C@@H](CC(C)C)C(=O)N[C@H](C(N)=O)C(C)C)[C@@H](C)O

- remaining at 0.5 h, 5 µM [2]: 96.7%
- IC50 (DU-145 [3]): 350 nM
- IC50 (CDK9/cyclin T1): 4.16 nM
- half-life [4]: 4.62 h
- IC50 (LNCaP): 410 nM
- remaining at 0.25 h, 5 µM [7]: 98.2%
- IC50 (VCaP): 810 nM
- IC50 (PC-3): 720 nM
- remaining at 6 h, 5 µM [13]: 87%
- Drug uptake [14]: Active
- Papp A→B at 2 h, 10 µM [15]: 29.8 ×10⁻⁶ cm/s
- Cmax [17]: 2690 ng/mL
- IC50 (T47D): 460 nM
- Drug uptake [19]: Active
- IC50 (MCF7): 590 nM
- Tmax [22]: 0.49 h
- half-life [23]: 4.87 h
- Cmax [24]: 3200 ng/mL
- Tmax [25]: 0.41 h
- half-life [26]: 5.13 h
SMILES: CC(=O)N[C@H](CC(N)=O)C(=O)N[C@@H](C)C(=O)N[C@@H](CC(C)C)C(=O)N[C@@H](CCC(N)=O)C(=O)N[C@H](C(=O)N[C@H](CC(C)C)C(=O)NCC(=O)N[C@@H](Cc1ccccc1)C(=O)N[C@H](CCC(N)=O)C(=O)N[C@@H](CC(C)C)C(=O)N[C@H](C(N)=O)[C@@H](C)O)[C@@H](C)O
- Activity [1]: Toxic
- Activity (DU-145 [5]): Active
- Activity [6]: Toxic
- Activity [8]: Toxic
- Activity (DU-145 [9]): Active; Compound Showed More Effect
- Activity [10]: Toxic
- Activity [11]: Toxic
- Activity [12]: Toxic
- Activity [16]: Toxic
- Activity (DU-145 [18]): Active
- IC50 (CWR22R): 950 nM
- Activity [20]: Toxic
- Activity [21]: Toxic
- Activity [27]: Toxic
